# Like-named read-outs stand apart in the source and are kept apart here.
# How the values were obtained:
# [1] = system: laboratory adapted HIV strain (NL4-3); experiment: microbe, parasite or virus in culture; settings: for EC50: Human immunodeficiency virus 1, NL43, MT4, MT4 cells infected with NL4-3; for SI (CC50/EC50): ratio of cytotoxicity (CC50) to antiviral activity (EC50)
# Procedure: Briefly, the antiviral activity of PL-100 was determined using MT4 cells infected with a laboratory adapted HIV strain (NL4-3). For comparison, seven approved protease inhibitors (PIs) were tested in parallel.
# The effect of 40% human serum on the antiviral activity of PL-100 in MT4 cells infected with NL4-3 was therefore evaluated.
# [2] = Cytotoxicity in the same cell culture system; type: cell-based; settings: human, MT4 cells
# Procedure: Cytotoxicity of PL-100 and other P is was evaluated in the same cell culture system. The selectivity index (SI) is the ratio of cytotoxicity (CC50) to antiviral activity (EC50). The selective index is similar to the therapeutic index but relates to in vitro studies.
# [3] = system: 63 HIV isolates with reduced susceptibility to all approved protease inhibitors; type: cell-based, HIV-1; settings: for % FC < 2.5 / % FC < 10 / % FC > 50 / Mean FC / Median FC: 63 diverse, multi-PI-resistant strains; for Mean FC / Median FC: FC in IC50 vs NL-4.3
# Excerpt: The cross-resistance profile of PL-100 against 63 HIV isolates with reduced susceptibility to all approved protease inhibitors (P is) including atazanavir was thus tested.
# The panel of 63 viral strains was selected based on the following rationale: 1) High-level loss of susceptibility to specific P is; 2) High-level loss of susceptibility to multiple P is; 3) Good representation of the primary mutations. This panel consists of resistant viruses from highly PI-experienced patients with high-level PI resistance.
# The genotype of these viruses encompasses a wide variety of mutational patterns. We particularly looked for the following primary PI mutations: D30N, L33F/I, M461/L, G48V, I50L/V, V82A/F/S/T, I84V and L90M as defined by the International AIDS Society (IAS)-USA.
# The dark cells indicate a […], the grey cells indicate FC values of 2.5≦FC<10 and the white cells indicate a FC value of; 0≦FC<2.5. The results of cross-resistance profile are further illustrated in the graph of FIG. 1.
# In the cross-resistance profiling studies against the 63 resistant strains mentioned herein, EC95 of PL-100 was determined against each strain. The median EC95 represents the concentration required to inhibit 95% of the viral replication of 50% diverse drug-resistant HIV-1 variants tested. Table 8 illustrates the percentage of resistant strains tested with protein-binding adjusted EC95s≦200 ng/ml. The resistant strains are grouped by the number of primary mutations they have.
# The EC95 of PL-100 was determined against each of the 63 resistant strains indicated herein. Table 9 illustrates the percentage of resistant strains tested with protein-binding adjusted EC95s≦630 ng/ml. The resistant strains are grouped by the number of primary mutations they have.
# [4] = Water solubility; type: physicochemical
# [5] = Pharmacokinetics of PL-100 and PL-461 in rats; type: in vivo, Sprague Dawley rats (Rattus norvegicus)
# Procedure: Animal tested are Sprague Dawley rats (species Rattus norvegicus) of 6-7 weeks old at the start of dosing and were obtained from Charles River (Montreal, Canada). The study usually comprises about 6 animals per groups. […] The rats were fasted 3 h. before dosing and 3 h. after dosing. The formulations are prepared as indicated below. The solutions are stable at room temperature over a week and are covered with aluminum foil to avoid lights. […] The dosing volume for all formulations is 2 mL per kg body weight. Blood sample was collected at 15 min, 30 min, 45 min, 1 […] after the dosing. Blood samples were centrifuged to separate the plasma and separated plasma samples were placed into cryovials and frozen at -80° C. for further analysis. Plasma samples together with standards and quality control samples were treated by protein precipitation and then analyzed by HPLC-MS. […] The PK profile was obtained by administration of the test drugs; PL-100 and PL-461 in rats. […] The pharmacokinetic parameters of PL-100 and PL-461 in rats** was compared.
# [6] = Study 4: ritonavir administered first, PL-461 15 or 30 minutes later; type: in vivo, Sprague Dawley rats; settings: test compound 15 or 30 minutes later, compared with the method of studies 1-3
# [7] = Plasma concentration after single oral dose in rats (in vivo cleavage of the phosphate group); design: species or system male Sprague-Dawley rats; settings: for AUC: 50 mg/Kg po, vehicle PBS, 3 rats, released active ingredient detected (PL-100 for PL-462, PL-337 for PL-515); for Detection of the administered phosphate compound in blood samples: 50 mg/kg po as aqueous solution
# Procedure: To assess the extent of in vivo cleavage of the phosphate group from the putative compounds, PL-100, PL-462 (based on PL-100), PL-337 and PL-515 (based on PL-337) compounds were administered po (per os, (i.e., by mouth)) (50 mg/kg) to male Sprague-Dawley rats and their plasma concentration measured at different time intervals post-administration.
# All test articles (PL-100, PL-462, PL-337 and PL-515) were prepared in different vehicle at the final concentration of 25 mg/mL. The vehicle composition is as follows: (1) 20% ethanol; 50% propylene glycol; 0.05% w/v Tween 20 and water (Mix); (2) PBS buffer (PBS).
# Test articles were administered to male Sprague-Dawley rats at a single oral dose of 50 mg/kg. Each article was tested in three rats. Blood samples (0.2-0.3 mL) were collected at the post-dose time of 10, 20, 40, 60, 120, 180 and 360 minutes. The harvested blood was centrifuged to isolate plasma. The resulting plasma was separated and stored at −70° C.
# Plasma samples together with standards and quality control samples were treated to precipitate proteins, then analyzed by HPLC-MS, for the presence of PL-462, PL-100, PL-515 and PL-337.
# [8] = sample O3-148709 (non-B subtype), 32I/47A, panel ID 1
# [9] = sample O4-148748, 37S/41K/70E, panel ID 115
# [10] = sample O4-148749, 37T/41K/70E, panel ID 151
# [11] = sample O4-148712, 46I/88S, panel ID 122
# [12] = sample O4-148713, 46I/88S, panel ID 123
# [13] = sample O3-129578, 46I/82T/84V, panel ID 11
SMILES,EC50 [1] [nM],CC50 [2] [nM],% FC < 2.5 [3] [%],% FC < 10 [3] [%],% FC > 50 [3] [%],Mean FC [3],Median FC [3],SI (CC50/EC50) [1],"Fold change in IC50 vs. Reference [3, 9]","Fold change in IC50 vs. Reference [3, 10]","Fold change in IC50 vs. Reference [3, 12]",further results
CC(C)CN(C[C@@H](O)[C@H](Cc1ccccc1)NC(=O)O[C@H]1CCOC1)S(=O)(=O)c1ccc(N)cc1 [Amprenavir],47,> 100000,14,52,8,18.5,9.7,–,–,–,–,–
COC(=O)N[C@H](C(=O)N[C@@H](Cc1ccccc1)[C@@H](O)CN(Cc1ccc(-c2ccccn2)cc1)NC(=O)[C@@H](NC(=O)OC)C(C)(C)C)C(C)(C)C [Atazanavir],4,55000,16,38,22,25.7,15.6,"13,750",1.4,1.5,–,"Fold change in IC50 vs. Reference [3, 8]: 1"
CC(C)(C)NC(=O)[C@@H]1CN(Cc2cccnc2)CCN1C[C@@H](O)C[C@@H](Cc1ccccc1)C(=O)N[C@H]1c2ccccc2C[C@H]1O [Indinavir],67,> 100000,13,54,5,16.5,8.1,–,–,–,–,–
Cc1cccc(C)c1OCC(=O)N[C@@H](Cc1ccccc1)[C@@H](O)C[C@H](Cc1ccccc1)NC(=O)[C@H](C(C)C)N1CCCNC1=O [Lopinavir],19,28000,10,37,19,31.3,17.9,"1,474",1,1.3,0.7,"Fold change in IC50 vs. Reference ([3]; sample O3-129586, 30N/88D/90M, panel ID 28): 1.2; Fold change in IC50 vs. Reference [3, 11]: 1.7"
Cc1c(O)cccc1C(=O)N[C@@H](CSc1ccccc1)[C@H](O)CN1C[C@H]2CCCC[C@H]2C[C@H]1C(=O)NC(C)(C)C [Nelfinavir],29,8000,10,27,10,31.7,15,276,1.6,1.9,4.6,"Fold change in IC50 vs. Reference [3, 13]: 1.6"
"COC(=O)N[C@H](C(=O)NCCCC[C@@H](COP(=O)(O)O)N(CC(C)C)S(=O)(=O)c1ccc(N)cc1)C(c1ccccc1)c1ccccc1 [PL-461, (1S,5S)-(1-{5-[(4-amino-benzenesulfonyl)-isobutyl-amino]-6-phosphonooxy-hexylcarbamoyl}-2,2-diphenyl-ethyl)-carbamic acid methyl ester]",–,–,–,–,–,–,–,–,–,–,–,"Fold more water soluble than PL-100 [4]: > 1800 fold; Water solubility ([4]; acidic conditions (FIG. 4)): moderate water solubility; Water solubility ([4]; pH>4.5 (FIG. 4)): increases dramatically; solubility ([4]; water, pH 7.5, aqueous buffer): 145 mg/mL; Fold improved oral bioavailability over PL-100 ([5]; female, Sprague Dawley, rat, in vivo, po): 2-3 fold; Plasma levels of the Lysine-based compound ([5]; rats, after oral dosing, compared to plasma levels of PL-100): insignificant or under detection limits; Increase of pharmacokinetics by sequential administration [6]: as efficient at increasing the pharmacokinetics"
"COC(=O)N[C@H](C(=O)NCCCC[C@@H](COP(=O)(O)O)N(CC(C)C)S(=O)(=O)c1ccc(N)cc1)C(c1ccccc1)c1ccccc1.[Na] [PL-462, (1S,5S)-(1-{5-[(4-amino-benzenesulfonyl)-isobutyl-amino]-6-phosphonooxy-hexylcarbamoyl}-2,2-diphenyl-ethyl)-carbamic Acid Methyl Ester Sodium Salt]",–,–,–,–,–,–,–,–,–,–,–,"AUC [7]: 0.816 ± 0.295 μg/hr * ml; Detection of the administered phosphate compound in blood samples [7]: None of the PL-462 and PL-515 compounds, delivered as aqueous solutions, are detected"
"COC(=O)N[C@H](C(=O)NCCCC[C@@H](COP(=O)(O)O)N(CC(C)C)S(=O)(=O)c1ccc(N)c(F)c1)C(c1ccccc1)c1ccccc1 [PL-515, (1S,5S)-(1-{5-[(4-amino-3-fluoro-benzenesulfonyl)-isobutyl-amino]-6-phosphonooxy-hexylcarbamoyl}-2,2-diphenyl-ethyl)-carbamic acid methyl ester]",–,–,–,–,–,–,–,–,–,–,–,"AUC [7]: 1.075 ± 0.625 μg/hr * ml; Detection of the administered phosphate compound in blood samples [7]: None of the PL-462 and PL-515 compounds, delivered as aqueous solutions, are detected"
"CC(C)c1nc(CN(C)C(=O)N[C@H](C(=O)N[C@@H](Cc2ccccc2)C[C@H](O)[C@H](Cc2ccccc2)NC(=O)OCc2cncs2)C(C)C)cs1 [Ritonavir, ritonavir]",61,–,–,–,–,–,–,–,–,–,–,–
CC(C)(C)NC(=O)[C@@H]1C[C@@H]2CCCC[C@@H]2CN1C[C@@H](O)[C@H](Cc1ccccc1)NC(=O)[C@H](CC(N)=O)NC(=O)c1ccc2ccccc2n1 [Saquinavir],12,19000,27,40,37,85,23.2,"1,583",1.2,1.2,0.6,"Fold change in IC50 vs. Reference ([3]; sample O3-129573, 24I/33F/46I/54L/82A, panel ID 3): 1.5; Fold change in IC50 vs. Reference [3, 13]: 1; Fold change in IC50 vs. Reference ([3]; sample O3-129584, 33F/50V, panel ID 24): 1.7; Fold change in IC50 vs. Reference [3, 8]: 0.2; Fold change in IC50 vs. Reference ([3]; sample O4-148711, 46I/47A/84V, panel ID 119): 1.1; Fold change in IC50 vs. Reference [3, 11]: 1.9; Fold change in IC50 vs. Reference ([3]; sample O4-148712, 46I/88S, panel ID 124): 2; Fold change in IC50 vs. Reference ([3]; sample O4-148721, 32I/46I/47V/50L, panel ID 127): 0.5; Fold change in IC50 vs. Reference ([3]; sample O4-148725, 32I/46L/47V/84V, panel ID 53): 0.8; Fold change in IC50 vs. Reference ([3]; sample O4-148745, 46I/50L/54V/82A, panel ID 99): 2.2"

# From patent US20060287316A1, “METHOD FOR IMPROVING PHARMACOKINETICS OF PROTEASE INHIBITORS AND PROTEASE INHIBITOR PRECURSORS” (priority 2005, published 2006)
